Laboratory results taken from patent US8431704B2, “Quinoline or isoquinoline substituted P2X7 antagonists” (Janssen Pharmaceutica NV, priority 2008, dated 2013).

molecular target: T1, hP2X7 (Homo sapiens, UniProt Q99572); assay: P2X7 antagonism: ligand-induced Ca2+ flux in 1321N1 astrocytoma cells overexpressing hP2X7; assay type: cell-based; conditions: pIC50 = -log(IC50), read-out: hP2RX7pIC50 (mean pIC50 values) (converted)
T1 construct: expressed in transfected cells; host or cells: 1321N1 astrocytoma cells
T1 sequence (Q99572 1-595): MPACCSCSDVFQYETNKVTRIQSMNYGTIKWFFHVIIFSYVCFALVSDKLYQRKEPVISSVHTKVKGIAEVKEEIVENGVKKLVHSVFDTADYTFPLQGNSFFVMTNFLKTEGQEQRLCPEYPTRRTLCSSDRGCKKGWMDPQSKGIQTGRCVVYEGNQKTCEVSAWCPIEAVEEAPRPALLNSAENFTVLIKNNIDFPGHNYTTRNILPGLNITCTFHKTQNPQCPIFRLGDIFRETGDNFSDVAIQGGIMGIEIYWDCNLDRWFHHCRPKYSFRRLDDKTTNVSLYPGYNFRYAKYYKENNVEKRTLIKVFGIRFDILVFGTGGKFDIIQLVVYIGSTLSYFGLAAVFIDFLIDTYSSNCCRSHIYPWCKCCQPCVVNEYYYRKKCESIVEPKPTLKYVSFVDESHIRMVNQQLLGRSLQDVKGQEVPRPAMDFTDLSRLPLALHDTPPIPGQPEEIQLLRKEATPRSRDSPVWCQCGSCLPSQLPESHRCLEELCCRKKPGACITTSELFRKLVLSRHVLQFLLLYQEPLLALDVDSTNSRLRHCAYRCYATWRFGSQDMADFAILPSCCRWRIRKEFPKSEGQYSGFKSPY
Procedure: Extracellular binding of ATP to P2X7 that is expressed in the cell-membrane opens the ligand gated cation channel and allows Ca^2+ entry into the cell. This ligand-induced Ca^2+ flux was measured in 1321N1 astrocytoma cells overexpressing hP2X7 for the compounds of the present invention.
The calcium assay kit used (Molecular Devices, R8090), provides a Ca^2+ sensitive dye together with a quenching dye. However, no specifications are given by the manufacturer. The kit most likely consists of a membrane permeable acetoxymethyl (AM) ester of a fluorescent Ca^2+ indicator, such as fluo-4 or fluo-3. Upon cellular uptake, the AM esters get cleaved by esterases, liberating the Ca^2+-sensitive dye which can then bind calcium. The dyes have an absorption spectrum compatible with excitation at 488 nm by argon laser sources and a large fluorescence intensity increase in response to Ca^2+ binding without an accompanying spectral shift. Emission wavelength is in the range of 510-560 nm.
The fluorescence, and thus the changes in intracellular [Ca^2+] in the 1321N1 cells was monitored in time before and after addition of the agonist. The effect of the antagonist was measured as % control and as IC50.

IC50 | SMILES
53.7 nM | O=C(NCC(c1cnc(C(F)(F)F)nc1)N1CCOCC1)c1cccc2nc(NC3CCC3)ccc12 (centres unmarked) [Compound 183]
61.7 nM | CCCNc1ccc2c(C(=O)NCC(c3cnc(C(F)(F)F)nc3)N3CCOCC3)cccc2n1 (centres unmarked) [Compound 184]
129 nM | COCCCNc1ccc2c(C(=O)NCC(c3cnc(C(F)(F)F)nc3)N3CCOCC3)cccc2n1 (centres unmarked) [Compound 185]
87.1 nM | Nc1ncc(C(CNC(=O)c2cccc3nc(N4CCOCC4)ccc23)N2CCC(F)(F)CC2)cn1 (centres unmarked) [Compound 187]
69.2 nM | CN(C)c1ncc(C(CNC(=O)c2cccc3nc(N4CCOCC4)ccc23)N2CCC(F)(F)CC2)cn1 (centres unmarked) [Compound 188]
110 nM | O=C(NCC(c1cnc(NC2CC2)nc1)N1CCC(F)(F)CC1)c1cccc2nc(N3CCOCC3)ccc12 (centres unmarked) [Compound 189]
77.6 nM | O=C(NCC(c1cnc(N2CCCC2)nc1)N1CCC(F)(F)CC1)c1cccc2nc(NC3CC3)ccc12 (centres unmarked) [Compound 190]
64.6 nM | O=C(NCC(c1cnc(-c2ccccc2)nc1)N1CCC(F)(F)CC1)c1cccc2nc(N3CCOCC3)ccc12 (centres unmarked) [Compound 191]
55 nM | COc1ncc(C(CNC(=O)c2cccc3nc(NC4CC4)ccc23)N2CCC(F)(F)CC2)cn1 (centres unmarked) [Compound 192]
61.7 nM | O=C(NCC(c1cnc(-c2ccccc2)nc1)N1CCC(F)(F)CC1)c1cccc2nc(NC3CC3)ccc12 (centres unmarked) [Compound 193]
178 nM | Nc1ncc(C(CNC(=O)c2cccc3nc(NC4CC4)ccc23)N2CCC(F)(F)CC2)cn1 (centres unmarked) [Compound 194]
72.4 nM | CN(C)c1ncc(C(CNC(=O)c2cccc3nc(NC4CC4)ccc23)N2CCC(F)(F)CC2)cn1 (centres unmarked) [Compound 195]
195 nM | CC(C)C1CCN(c2ccc3c(C(=O)NCC(c4cnc(C(F)(F)F)nc4)N4CCOCC4)cccc3n2)CC1 (centres unmarked) [Compound 196]
120 nM | O=C(NCC(c1cnc(C(F)(F)F)nc1)N1CCOCC1)c1cccc2nc(N3CCN(CCO)CC3)ccc12 (centres unmarked) [Compound 197]
77.6 nM | CN1CCN(c2ccc3c(C(=O)NCC(c4cnc(C(F)(F)F)nc4)N4CCOCC4)cccc3n2)CC1 (centres unmarked) [Compound 198]
407 nM | CC(C)N1CCN(c2ccc3c(C(=O)NCC(c4cnc(N(C)C)nc4)N4CCOCC4)cccc3n2)CC1 (centres unmarked) [Compound 199]
51.3 nM | COc1ncc(C(CNC(=O)c2cccc3nc(N4CCN(C(C)C)CC4)ccc23)N2CCC(F)(F)CC2)cn1 (centres unmarked) [Compound 200]
115 nM | CC(C)N1CCN(c2ccc3c(C(=O)NCC(c4cnc(-c5ccccc5)nc4)N4CCC(F)(F)CC4)cccc3n2)CC1 (centres unmarked) [Compound 201]
115 nM | O=C(NCC(c1cnc(N2CCNCC2)nc1)N1CCC(F)(F)CC1)c1cccc2nc(NC3CC3)ccc12 (centres unmarked) [Compound 202]
67.6 nM | CC(C)N1CCN(c2ccc3c(C(=O)NCC(c4cnc(N5CCOCC5)nc4)N4CCC(F)(F)CC4)cccc3n2)CC1 (centres unmarked) [Compound 203]
47.9 nM | O=C(NCC(c1cnc(OC2CCC2)nc1)N1CCC(F)(F)CC1)c1cccc2nc(N3CCCC3)ccc12 (centres unmarked) [Compound 204]
64.6 nM | O=C(NCC(c1cnc(N2CCOCC2)nc1)N1CCC(F)(F)CC1)c1cccc2nc(NC3CC3)ccc12 (centres unmarked) [Compound 205]
105 nM | CN(C)c1ncc(C(CNC(=O)c2cccc3nc(N4CCCC4)ccc23)N2CCC(F)(F)CC2)cn1 (centres unmarked) [Compound 206]
138 nM | CCc1ncc(C(CNC(=O)c2cccc3nc(NC4CC4)ccc23)N2CCOCC2)cn1 (centres unmarked) [Compound 207]
45.7 nM | O=C(NCC(c1cncnc1)N1CCC(F)(F)CC1)c1cccc2nc(N3CCCC3)ccc12 (centres unmarked) [Compound 208]
117 nM | CC(C)N1CCN(c2ccc3c(C(=O)NCC(c4cnc(N(C)C)nc4)N4CCC(F)(F)CC4)cccc3n2)CC1 (centres unmarked) [Compound 209]
372 nM | CC(C)c1ncc(C(CNC(=O)c2cccc3nc(N4CCCC4)ccc23)N2CCOCC2)cn1 (centres unmarked) [Compound 210]

IC50 | SMILES
79.4 nM | O=C(NCC(c1cncnc1)N1CCC(F)(F)CC1)c1cccc2nc(NCC3CC3)ccc12 (centres unmarked) [Compound 211]
41.7 nM | CCOc1ncc(C(CNC(=O)c2cccc3nc(N4CCCC4)ccc23)N2CCC(F)(F)CC2)cn1 (centres unmarked) [Compound 212]
100 nM | CC(C)N1CCN(c2ccc3c(C(=O)NCC(c4cnc(C5CCCC5)nc4)N4CCC(F)(F)CC4)cccc3n2)CC1 (centres unmarked) [Compound 213]
33.9 nM | O=C(NCC(c1cnc(OC2CCC2)nc1)N1CCC(F)(F)CC1)c1cccc2nc(NC3CC3)ccc12 (centres unmarked) [Compound 214]
174 nM | CC(C)N1CCN(c2ccc3c(C(=O)NCC(c4cnc(N5CCCC5)nc4)N4CCC(F)(F)CC4)cccc3n2)CC1 (centres unmarked) [Compound 215]
100 nM | O=C(NCC(c1cnc(NC2CC2)nc1)N1CCC(F)(F)CC1)c1cccc2nc(N3CCCC3)ccc12 (centres unmarked) [Compound 216]
47.9 nM | CCc1ncc(C(CNC(=O)c2cccc3nc(NCC4CC4)ccc23)N2CCC(F)(F)CC2)cn1 (centres unmarked) [Compound 217]
316 nM | CN(C)c1ncc(C(CNC(=O)c2cccc3nc(N4CCCC4)ccc23)N2CCOCC2)cn1 (centres unmarked) [Compound 218]
126 nM | O=C(NCC(c1cnc(N2CCCC2)nc1)N1CCOCC1)c1cccc2nc(N3CCCC3)ccc12 (centres unmarked) [Compound 219]
83.2 nM | CCc1ncc(C(CNC(=O)c2cccc3nc(N4CCOCC4)ccc23)N2CCC(F)(F)CC2)cn1 (centres unmarked) [Compound 220]
67.6 nM | CCc1ncc(C(CNC(=O)c2cccc3nc(NC4CC4)ccc23)N2CCC(F)(F)CC2)cn1 (centres unmarked) [Compound 221]
66.1 nM | CC(=O)N1CCN(c2ncc(C(CNC(=O)c3cccc4nc(N5CCCC5)ccc34)N3CCC(F)(F)CC3)cn2)CC1 (centres unmarked) [Compound 222]
195 nM | O=C(NCC(c1cnc(N2CCNCC2)nc1)N1CCC(F)(F)CC1)c1cccc2nc(NCC3CC3)ccc12 (centres unmarked) [Compound 223]
115 nM | O=C(NCC(c1cnc(N2CCOCC2)nc1)N1CCC(F)(F)CC1)c1cccc2nc(N3CCCC3)ccc12 (centres unmarked) [Compound 224]
102 nM | O=C(NCC(c1cnc(N2CCCC2)nc1)N1CCC(F)(F)CC1)c1cccc2nc(N3CCCC3)ccc12 (centres unmarked) [Compound 225]
162 nM | Nc1ncc(C(CNC(=O)c2cccc3nc(N4CCCC4)ccc23)N2CCC(F)(F)CC2)cn1 (centres unmarked) [Compound 226]
33.1 nM | CC(C)Oc1ncc(C(CNC(=O)c2cccc3nc(NCC4CC4)ccc23)N2CCOCC2)cn1 (centres unmarked) [Compound 227]
51.3 nM | CCOc1ncc(C(CNC(=O)c2cccc3nc(N4CCOCC4)ccc23)N2CCOCC2)cn1 (centres unmarked) [Compound 228]
69.2 nM | CCOc1ncc(C(CNC(=O)c2cccc3nc(NC4CC4)ccc23)N2CCOCC2)cn1 (centres unmarked) [Compound 229]
141 nM | CC(C)c1ncc(C(CNC(=O)c2cccc3nc(N4CCOCC4)ccc23)N2CCOCC2)cn1 (centres unmarked) [Compound 230]
115 nM | CC(C)c1ncc(C(CNC(=O)c2cccc3nc(NC4CC4)ccc23)N2CCOCC2)cn1 (centres unmarked) [Compound 231]
170 nM | CN(C)c1ncc(C(CNC(=O)c2cccc3nc(N4CCOCC4)ccc23)N2CCOCC2)cn1 (centres unmarked) [Compound 232]
148 nM | CN(C)c1ncc(C(CNC(=O)c2cccc3nc(NC4CC4)ccc23)N2CCOCC2)cn1 (centres unmarked) [Compound 233]
26.9 nM | O=C(NCC(c1cnc(OCC2CC2)nc1)N1CCC(F)(F)CC1)c1cccc2nc(NCC3CC3)ccc12 (centres unmarked) [Compound 234]
56.2 nM | CC(C)Oc1ncc(C(CNC(=O)c2cccc3nc(N4CCOCC4)ccc23)N2CCC(F)(F)CC2)cn1 (centres unmarked) [Compound 235]
34.7 nM | CC(C)Oc1ncc(C(CNC(=O)c2cccc3nc(NC4CC4)ccc23)N2CCC(F)(F)CC2)cn1 (centres unmarked) [Compound 236]
